# Columns and labels:
# [1] = tested on: wheat powdery mildew pathogen (Erysiphe graminis f. sp. tritici); test: Wheat powdery mildew control test; type: in vivo; conditions: Blumeria graminis, 144 h; 125 ppm drug solution sprayed onto wheat seedlings (Chihoku); lesion area ratio 6 days after inoculation
# Experimental: (§1) 5 parts by weight of the dihydropyrimidine compound of the present invention, 93.5 parts by weight of N,N-dimethylformamide, and 1.5 parts by weight of polyoxyethylene sorbitan monolaurate (TWEEN® 20) were mixed and dissolved to obtain an emulsion (I) including 5% of an active ingredient.
# (§2) The control value was calculated by the following expression. Control value (%)=100−{lesion area ratio in treated group/lesion area ratio in untreated group}×100 [Expression 1]
# Water was added to the emulsion (I) such that the concentration of the dihydropyrimidine compound reached 125 ppm to dissolve the emulsion, and a drug solution was obtained. Subsequently, the drug solution was sprayed onto wheat seedlings (variety: “Chihoku”, leaf stage: 1 to 2) cultivated in seedling pots. After air drying, conidiospores of a wheat powdery mildew pathogen (Erysiphe graminis f. sp. tritici) were sprinkled thereon for inoculation (treated group). As a control, wheat seedlings that were not sprayed with the drug solution were inoculated in the same manner as described above (untreated group). The seedlings were left to stand in a greenhouse at 20° C.
# On the 6 days after the inoculation, the leaves of the wheat seedlings were visually observed to determine the lesion area ratio, and the control value was calculated.
# [2] = tested on: wheat brown rust pathogen (Puccinia recondita); test: Wheat brown rust control test; type: in vivo; conditions: 288 h, 125 ppm drug solution sprayed onto wheat seedlings (Norin 61), lesion area ratio 12 days after inoculation
# Experimental: as §1, §2
# Water was added to the emulsion (I) such that the concentration of the dihydropyrimidine compound reached 125 ppm to dissolve the emulsion, and a drug solution was obtained. Subsequently, the drug solution was sprayed onto wheat seedlings (variety: “Norin 61”, leaf stage: 1 to 2) cultivated in seedling pots. After air drying, uredospores of a wheat brown rust pathogen (Puccinia recondita) were sprinkled on wheat seedlings sprayed with the drug solution for inoculation (treated group). As a control, wheat seedlings that were not sprayed with the drug solution were inoculated in the same manner as described above (untreated group). The seedlings were left to stand in a greenhouse at 20° C.
# On the 12 days after the inoculation, the leaves of the wheat seedlings were visually observed to determine the lesion area ratio, and the control value was calculated.
# [3] = tested on: apple scab pathogen (Venturia inaequalis); test: Apple scab control test; type: in vivo; conditions: 336 h, 125 ppm drug solution sprayed onto apple seedlings (Orin), lesion area ratio 2 weeks after inoculation
# Experimental: as §1, §2
# Water was added to the emulsion (I) such that the concentration of the dihydropyrimidine compound reached 125 ppm to dissolve the emulsion, and a drug solution was obtained. Subsequently, the drug solution was sprayed onto apple seedlings (variety: “Orin”, leaf stage: 3 to 4) cultivated in seedling pots. After air drying, the seedlings were inoculated with conidiospores of an apple scab pathogen (Venturia inaequalis) (treated group). As a control, apple seedlings that were not sprayed with the drug solution were inoculated in the same manner (untreated group). The seedlings were left to stand in a humidified room at 20° C. using a 12 hour light/dark cycle.
# On the day 2 weeks after the inoculation, the leaves of the apple seedlings were visually observed to determine the lesion area ratio, and the control value was calculated.
# Aspergillus niger = test: Antimicrobial test against Aspergillus niger; type: cell-based; conditions: 96 h, Vogel medium, 25° C., 4 days in the dark, turbidity at 405 nm, read-out: growth inhibition rate
# Experimental: Spores of Aspergillus niger were added to and dispersed in a Vogel medium, and a dihydropyrimidine compound dissolved in dimethyl sulfoxide was added and mixed thereto at 25 ppm. The resulting solution was dispensed onto a 96-well microplate and cultivated in the dark at 25° C. for 4 days.
# After the cultivation, the turbidity at a wavelength of 405 nm was measured by a microplate reader and compared with that in the untreated case to determine the growth inhibition of Aspergillus niger (%) was determined.
# [4] = tested on: wheat powdery mildew pathogen (Erysiphe graminis f. sp. tritici); test: Wheat powdery mildew seed treatment test; type: in vivo; conditions: Blumeria graminis, 168 h; seed treatment 100 g/100 kg wheat seeds (Chihoku); inoculation after 8 to 10 days; lesion area ratio 7 days after inoculation
# Experimental: as §1, §2
# The emulsion (I) was used to treat seeds such that (weight of dihydropyrimidine compound)/(weight of seeds) reached 100 g/100 kg based on the wheat seeds (variety: “Chihoku”). These seeds were disseminated in pots, and after 8 to 10 days, conidiospores of a wheat powdery mildew pathogen (Erysiphe graminis f. sp. tritici) were sprinkled thereon for inoculation (treated group). As a control, wheat seedlings that were not treated with the drug were inoculated in the same manner as described above (untreated group). The seedlings were left to stand in a greenhouse at 20° C.
# (§3) On the 7 days after the inoculation, the leaves of the wheat seedlings were visually observed to determine the lesion area ratio, and the control value was calculated.
# [5] = tested on: wheat powdery mildew pathogen (Erysiphe graminis f. sp. tritici); test: Wheat powdery mildew soil irrigation treatment test; type: in vivo; conditions: Blumeria graminis, 168 h; soil irrigation with 10 ml of 100 ppm drug solution per pot, wheat (Chihoku); inoculation after 8 to 10 days; lesion area ratio 7 days after inoculation
# Experimental: as §1, §2
# Pots (5.5 cm×5.5 cm) in which wheat seeds (variety: “Chihoku”) were disseminated were irrigated with 10 ml of a drug solution prepared by adding water to the emulsion (I) so as to have a concentration of the dihydropyrimidine compound of 100 ppm. After 8 to 10 days, conidiospores of a wheat powdery mildew pathogen (Erysiphe graminis f. sp. tritici) were sprinkled thereon for inoculation (treated group). As a control, wheat seedlings that were not treated with the drug were inoculated in the same manner as described above (untreated group). The seedlings were left to stand in a greenhouse at 20° C.
# as §3
SMILES,pest or weed control at 125 ppm [1] [%],pest or weed control at 125 ppm [2] [%],pest or weed control at 125 ppm [3] [%],inhibition at 25 ppm (Aspergillus niger) [%],pest or weed control at 100 g/100 kg seed [4] [%],pest or weed control at 100 ppm [5] [%]
COc1ccc(F)cc1C(O)Cn1cc(/C(C)=N/OC(C)C)c(=O)n(CC(C)(C)C(=O)NC(C)C)c1=O (stereo not shown) [A-2],≥ 75,≥ 75,≥ 75,–,–,–
COc1ccc(F)cc1C(Cn1cc(C=NOCC(F)F)c(=O)n(C(C)C(=O)NC(C)C)c1=O)OCCC#N (stereo not shown) [A-10],≥ 75,≥ 75,≥ 75,–,–,–
CCCON=Cc1cn(CC(OCCC#N)c2cc(F)ccc2OC)c(=O)n(C(C)C(=O)NC(C)C)c1=O (stereo not shown) [A-11],≥ 75,≥ 75,≥ 75,–,–,–
CCON=Cc1cn(CC(OCCC#N)c2cc(F)ccc2OC)c(=O)n(CCNC(=O)C(C)C)c1=O (stereo not shown) [A-17],≥ 75,≥ 75,≥ 75,–,–,–
CCO/N=C(\C)c1cn(CC(O)c2cc(F)ccc2OC)c(=O)n(CC(C)(C)C(=O)NC(C)C)c1=O (stereo not shown) [A-25],–,≥ 75,≥ 75,–,–,–
CCO/N=C(\C)c1cn(CC(O)c2cc(F)ccc2OC)c(=O)n(C2CCCC2NC(=O)C(C)C)c1=O (stereo not shown) [A-48],≥ 75,≥ 75,≥ 75,–,–,–
COc1ccccc1C(O)Cn1cc(/C(C)=N/OC(C)C)c(=O)n(C[C@H](C)NC(=O)C(C)C)c1=O (stereo partly shown) [A-58],≥ 75,–,≥ 75,≥ 50,≥ 75,≥ 75
COc1ccc(F)cc1C(Cn1cc(C=NOC(C)C)c(=O)n(C(C)C(=O)N2CCCCC2)c1=O)OCCC#N (stereo not shown) [A-69],≥ 75,≥ 75,–,–,–,–
CCN(CC)C(=O)N[C@H](Cn1c(=O)c(/C(C)=N/OC(C)C)cn(CC(O)c2cc(F)ccc2OC)c1=O)C(C)C (stereo partly shown) [C-67],–,–,–,–,–,≥ 75
COc1ccc(F)cc1C(O)Cn1cc(/C(C)=N/OC(C)C)c(=O)n(C[C@@H](NC(=O)C(C)=O)C(C)C)c1=O (stereo partly shown) [C-73],–,–,–,≥ 50,≥ 75,≥ 75
COCC(=O)N[C@H](Cn1c(=O)c(/C(C)=N/OC(C)C)cn(CC(O)c2cc(F)ccc2OC)c1=O)C(C)C (stereo partly shown) [C-83],–,–,–,≥ 50,≥ 75,≥ 75
CC[C@@H](Cn1c(=O)c(/C(C)=N/OC(C)C)cn(CC(O)c2ccccc2OC)c1=O)NC(=O)C(C)C (stereo partly shown) [C-93],–,–,–,≥ 50,≥ 75,≥ 75
CCCC(=O)N[C@H](Cn1c(=O)c(/C(C)=N/OC(C)C)cn(CC(O)c2ccccc2OC)c1=O)C(C)C (stereo partly shown) [C-95],–,–,–,≥ 50,≥ 75,≥ 75
COc1ccccc1C(O)Cn1cc(/C(C)=N/OC(C)C)c(=O)n(C[C@@H](NC(=O)C2CC2)C(C)C)c1=O (stereo partly shown) [C-99],–,–,–,≥ 50,≥ 75,≥ 75
C=C(C)C(=O)N[C@H](Cn1c(=O)c(/C(C)=N/OC(C)C)cn(CC(O)c2cc(F)ccc2OC)c1=O)C(C)C (stereo partly shown) [C-101],–,–,–,≥ 50,≥ 75,≥ 75
CCO/N=C(\C)c1cn(CC(O)c2cc(F)ccc2OC)c(=O)n(C[C@@H](NC(=O)C(C)C)C(C)C)c1=O (stereo partly shown) [C-107],–,–,–,≥ 50,≥ 75,≥ 75

SMILES,pest or weed control at 125 ppm [1] [%],pest or weed control at 125 ppm [2] [%],pest or weed control at 125 ppm [3] [%],inhibition at 25 ppm (Aspergillus niger) [%],pest or weed control at 100 g/100 kg seed [4] [%],pest or weed control at 100 ppm [5] [%]
CCCC(=O)N[C@H](Cn1c(=O)c(/C(C)=N/OC(C)C)cn(CC(O)c2cc(F)ccc2OC)c1=O)C(C)C (stereo partly shown) [C-115],–,–,–,≥ 50,≥ 75,–
CCC(=O)N[C@H](Cn1c(=O)c(/C(C)=N/OC(C)C)cn(CC(O)c2cc(F)ccc2OC)c1=O)C(C)C (stereo partly shown) [C-117],–,–,–,≥ 50,≥ 75,≥ 75
CCCC(=O)N[C@@H](C)Cn1c(=O)c(/C(C)=N/OC(C)C)cn(CC(O)c2cc(F)ccc2OC)c1=O (stereo partly shown) [C-135],–,–,–,≥ 50,≥ 75,–
COc1ccc(F)cc1C(O)Cn1cc(/C(C)=N/OC(C)C)c(=O)n(C[C@@H](NC(=O)C(C)C)C(C)(C)C)c1=O (stereo partly shown) [C-148],–,–,–,≥ 50,≥ 75,≥ 75
CC[C@@H](Cn1c(=O)c(/C(C)=N/OC(C)C)cn(CC(O)c2cc(F)ccc2OC)c1=O)NC(=O)C(C)C (stereo partly shown) [C-154],–,–,–,≥ 50,≥ 75,≥ 75
C=Cc1ccccc1C(O)Cn1cc(/C(C)=N/OC(C)C)c(=O)n(C[C@H](C)NC(=O)C(C)C)c1=O (stereo partly shown) [C-160],–,–,–,≥ 50,≥ 75,≥ 75
COc1ccccc1C(O)Cn1cc(/C(C)=N/OC(C)C)c(=O)n(C[C@@H](NC(=O)C(C)C)C(C)C)c1=O (stereo partly shown) [C-170],–,–,–,≥ 50,≥ 75,≥ 75
COc1ccc(F)cc1C(O)Cn1cc(/C(C)=N/OC(C)C)c(=O)n(C[C@H](CCSC)NC(=O)C(C)C)c1=O (stereo partly shown) [C-176],–,–,–,≥ 50,≥ 75,–
COc1ccc(F)cc1C(O)Cn1cc(/C(C)=N/OC(C)C)c(=O)n(C[C@H](C)NC(=O)N(C)C)c1=O (stereo partly shown) [C-179],–,–,–,≥ 50,≥ 75,≥ 75
COc1cc(F)c(F)cc1C(O)Cn1cc(/C(C)=N/OC(C)C)c(=O)n(C[C@H](C)NC(=O)C(C)C)c1=O (stereo partly shown) [C-182],–,–,–,≥ 50,–,≥ 75
COc1ccc(F)cc1C(O)Cn1cc(/C(C)=N/OC(C)C)c(=O)n(C[C@H](C)NC(=O)NC(C)C)c1=O (stereo partly shown) [C-191],–,–,–,–,–,≥ 75
CCc1ccccc1C(O)Cn1cc(/C(C)=N/OC(C)C)c(=O)n(C[C@H](C)NC(=O)C(C)C)c1=O (stereo partly shown) [C-197],–,–,–,≥ 50,≥ 75,≥ 75
COc1ccc(F)cc1C(O)Cn1cc(/C(C)=N/OC(C)C)c(=O)n(C[C@H](CC(C)C)NC(=O)C(C)C)c1=O (stereo partly shown) [C-199],–,–,–,≥ 50,≥ 75,≥ 75
COc1ccc(F)cc1C(O)Cn1cc(/C(C)=N/OC(C)C)c(=O)n(C[C@@H](NC(C)=O)C(C)C)c1=O (stereo partly shown) [C-207],–,–,–,≥ 50,≥ 75,≥ 75
COc1ccc(F)cc1C(O)Cn1cc(/C(C)=N/OC(C)C)c(=O)n(C[C@@H](NC(=O)C(C)C)C(C)C)c1=O (stereo partly shown) [C-210],–,–,–,≥ 50,≥ 75,≥ 75

# Source: patent US12593845B2 (priority 2019, dated 2026)
